From ChEMBL document CHEMBL1287668, “Synthesis, antioxidant and toxicological study of novel pyrimido quinoline derivatives from 4-hydroxy-3-acyl quinolin-2-one” (Bioorg Med Chem Lett, 2010) come the findings set out here.

Series [1] is described as follows: Antioxidant activity assessed as total reducing activity after 30 mins by spectrophotometric analysis. It counts as functional.
Series [2] is described as follows: Antioxidant activity assessed as EDTA chelating effect after 10 mins by spectrophotometric analysis. It counts as functional.
The subject of series [3] is Radical scavenging activity. Kind of series: Antioxidant activity assessed as DPPH free radical scavenging activity after 30 mins by spectrophotometric analysis. It counts as functional.
The nature of series [4]: Antioxidant activity assessed as nitric oxide scavenging activity after 150 mins by spectrophotometric analysis. It counts as functional. The arrangement: concentration or dose not given beside the values.
The nature of series [5]: Antioxidant activity assessed as super oxide scavenging activity after 150 mins by spectrophotometric analysis. It counts as functional. Also on record: concentration or dose not given beside the values.
Series [6] is described as follows: Antioxidant activity assessed as ferric ion reducing ability by spectrophotometric analysis. Format: functional.
Series [7] concerns Rattus norvegicus. Kind of series: Toxicity in Wistar rat assessed as incidence of convulsion at 200 mg/kg, po measured after 24 hrs. The arrangement: dose 200 mg/kg, route oral. Format: organism-based. The settings on record: in vivo.
The test system of series [8] is Rattus norvegicus. The series is described as follows: Toxicity in Wistar rat assessed as incidence of tremor at 200 mg/kg, po measured after 24 hrs. Also on record: dose 200 mg/kg, route oral. It counts as organism-based. The settings on record: in vivo.
Series [9] has as its system Rattus norvegicus. Kind of series: Toxicity in Wistar rat assessed as grip strength at 200 mg/kg, po measured after 24 hrs. Format: organism-based. Also on record: dose 200 mg/kg, route oral. The settings on record: in vivo.
Series [10] concerns Rattus norvegicus. The series is described as follows: Toxicity in Wistar rat assessed as pupil dilatation at 200 mg/kg, po measured after 24 hrs. Format: organism-based. Also on record: dose 200 mg/kg, route oral. The settings on record: in vivo.
The subject of series [11] is Rattus norvegicus. The series is described as follows: Toxicity in Wistar rat fed 4 hrs post dosing assessed as incidence of adverse effects at 2 mg/kg, po administered as single dose measured on day one. Format: organism-based. Also on record: dose 2 mg/kg, route oral. The settings on record: in vivo.
Series [12] relates to Rattus norvegicus. The series is described as follows: Toxicity in Wistar rat fed 4 hrs post dosing assessed as incidence of adverse effects at 2 mg/kg, po administered as single dose measured on day 14. Format: organism-based. Also on record: dose 2 mg/kg, route oral. The following applies: in vivo.
Series [13] can be described thus: Toxicity in po dosed Wistar rat. It counts as organism-based. The settings on record: in vivo.

Consider `COc1ccc(O)c(C(C)(C)C)c1.COc1ccc(O)cc1C(C)(C)C`, for which the Activity came out at 8050 µmol in series [1]; 16.1 mg in [2]; 170 µg in series [3]; 79.1% in [4]; 76.5% in series [5].

With `CC1=NNC(=O)Nc2c1c(=O)[nH]c1ccccc21`, the Activity in series [1] stood at 2590 µmol; in [2], 12.3 mg; in [3] it was 540 µg; in [4], 16.1%; in series [5] it was 40.9%.

`Cc1[nH]nc2c1c(=O)[nH]c1ccccc12`: the Activity in [1] amounted to 1230 µmol; in series [6], 150 mmol; in series [2], 10.4 mg; in series [3] it was 1110 µg; in series [4], 18.5%; in series [5], 8.7%.

As to `Cc1nc(=S)[nH]c2c1c(=O)[nH]c1ccccc12`, the Activity in series [1] was determined as 3630 µmol; in series [6], 145 mmol; in series [2], 9.6 mg; in [3] it was 1040 µg; in series [4], 12%; in series [5], 22.4%.

Turning to `Cc1cc(C(C)(C)C)c(O)c(C(C)(C)C)c1`, the Activity in [1] amounted to 13100 µmol; in [6] it was 134 mmol; in [2] it was 13.2 mg; in [3], 150 µg; in [4], 92.1%; in [5], 87.1%.

Take `Cc1nc(=O)[nH]c2c1c(=O)[nH]c1ccccc12`: the Activity in [1] was determined as 3880 µmol; in series [6] it was 205 mmol; in series [2], 10.7 mg; in series [3] it was 1410 µg; in [4] it was 62.3%; in [5], 38%. Further, the Activity result was “Toxic” with Rattus norvegicus [7]; “Toxic” in the series on Rattus norvegicus [8]; “Toxic” in the series with Rattus norvegicus [9]; “Toxic” in the series with Rattus norvegicus [10]; “Non-toxic” with Rattus norvegicus [11]; “Non-toxic” in the series with Rattus norvegicus [12]. The molecule also returned an MTD in [13] of 2000 mg/kg.

With `Cc1noc2c1c(=O)[nH]c1ccccc12`, the Activity in series [1] amounted to 4010 µmol; in [6], 169 mmol; in series [2], 4.9 mg; in [3] it was 466 µg; in series [4], 40.3%; in series [5], 16.6%.

For `CC1=NNC(=S)Nc2c1c(=O)[nH]c1ccccc21`, the Activity is 2650 µmol in series [1]; 9.1 mg in [2]; 752 µg in [3]; 61.6% in [4]; 74.5% in series [5]; “Toxic” in the series on Rattus norvegicus [7]. For the same molecule, the Activity entry with Rattus norvegicus [8] is listed as “Toxic”; with Rattus norvegicus [9], “Toxic”; in the series with Rattus norvegicus [10], “Toxic”; in the series with Rattus norvegicus [11], “Non-toxic”; with Rattus norvegicus [12] it was “Non-toxic”. The same molecule registered an MTD in [13] of 2000 mg/kg.
